System: K12877-001-R-J1-PDC complex spheroid viability
Assay: Anticancer human tumor K12877-001-R-J1-PDC patient-derived lung adenocarcinoma cell line growth inhibition [RAS]
Conditions: for IC50: curve of first compound; for viability, T/C: stronger effect = lower value
Excerpt: RAS pathway inhibitors in Combinations in Complex Spheroids
A high-throughput screen of multi-cell type tumor spheroids was designed to identify active combinations of RAS pathway inhibitors and targeted small molecules. Complex spheroids include a stromal component modeled by human endothelial cells (HUVEC) and fibroblasts modeled by human mesenchymal stem cells (MSCs). The concentration ranges selected for each drug and investigational agent were based upon clinically achievable concentrations if the clinical Cmax of the agent was known.
Compounds. The drugs and investigational agents: abemaciclib (NSC768073), cobimetinib (NSC768068), divarasib (GDC6063, NSC841802), docetaxel (NSC628503), GDC-1971 (RLY-1971, NSC841576), gemcitabine (NSC613327), inavolisib (NSC800729), ipatasertib (NSC767898), KB-0742 (NSC834161), MRTX-1133 (NSC836407), osimertinib (NSC779217), RMC-4630 (NSC839698), RMC-6236 (NSC851965), RMC-6291 (NSC852671), Ro-3306 (NSC812927), sapanisertib (NSC764658), SN-38 (NSC673596), staurosporine (NSC755774), SY5609 (NSC837396), and tovorafenib (DAY101, NSC766906), were obtained from the National Cancer Institute (NCI) Developmental Therapeutics Program Chemical Repository. The FDA-approved anticancer drug set is available from the NCI Developmental Therapeutics Program. […] The stock solutions were prepared in dimethyl sulfoxide (DMSO, Sigma-Aldrich, St. Louis, MO, cat. D2650) at 800-fold the tested concentration and stored at -70 degrees C prior to their use. All drugs and investigational agents were tested over a range starting from a high concentration at or near the clinical Cmax and decreasing in half-log increments. If the clinical Cmax for an agent had not been determined, the highest concentration tested was 10 microM.
Cell Culture. All cells were maintained in an incubator at 37 degrees C and 5% CO2 with 95% humidity. The PDC lines were cultured according to standard operating procedures established by the NCI PDMR. All PDCs were thawed and cultured in Matrigel-coated flasks prepared with a working solution of 1X Ham's F-12 nutrient mix, without supplementation (Invitrogen, Waltham, MA, cat. 11765054), 100 U/mL penicillin-streptomycin (Invitrogen, cat. 15140122), and 2.5% Matrigel (Corning Inc., Corning, NY, cat. 354248) for the first three passages. The 362531-283-R-J2-PDC and 782815-120-R-J1-PDC lines were cultured in 6C/Colon 1B media, which includes advanced DMEM/F-12 (Thermo Fisher Scientific, cat. 12634028), 10 mM HEPES (Thermo Fisher Scientific, cat. 15630080), 1X GlutaMAX supplement (Thermo Fisher Scientific, cat. 35050061), 0.1 mg/mL primocin (InvivoGen, San Diego, CA, cat. ant-pm-2), 10% defined fetal bovine serum, heat inactivated (HyClone Laboratories Inc., Logan, UT, cat. SH30070.03HI), 50% L-WRN conditioned media (ATCC, cat. CRL-3276), 1.25 mM N-Acetyl-L-cysteine (Sigma-Aldrich, cat. A9165), 10 mM nicotinamide (Sigma-Aldrich, cat. N0636), 1X B-27 supplement (Thermo Fisher Scientific, cat. 17504044), 1X N-2 supplement (Thermo Fisher Scientific, cat. 17502048), 50 ng/mL human EGF (Thermo Fisher Scientific, cat. PHG0311), and 10 microM Y-27632 dihydrochloride (Tocris Bioscience, cat. 1254). The K12877-001-R-J1-PDC line was cultured in 6I media, which includes all 6C/Colon 1B media plus 10 ng/mL human FGF-10 (PeproTech, cat. 100-26), 1 ng/mL human FGF-2 (PeproTech, cat. 100-18B), 1 µM prostaglandin E2 (Tocris Bioscience, cat. 2296), […] hydrocortisone (Sigma-Aldrich, cat. H4001), and […] bovine insulin (Sigma-Aldrich, cat. I6634). The K86415-001-R-J1-PDC line was cultured in 6D media, which includes all 6C/Colon 1B media components minus the L-WRN conditioned media. The 485176-168-R4-J1-PDC was cultured in PANC media, which includes all 6C/Colon 1B media plus 100 ng/mL human FGF-10 (PeproTech, cat. 100-26), 500 nM SB-431542 (Selleckchem, cat. S1067), and 10 nM gastrin (Tocris Bioscience, cat. 3006). […]
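Further: spheroids exposed to agents for one week before readout.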

IC50 (second compound 0.00316 µM): > 10 µM
IC50 (second compound 0.01 µM): > 10 µM
IC50 (second compound 0.0316 µM): > 10 µM
IC50 (second compound 0.1 µM): > 10 µM
IC50 (second compound 0.316 µM): > 10 µM
IC50 (second compound 1 µM): > 10 µM
Structure (SMILES): Cc1nc(N2CCC3(CC2)COC(C)C3N)c(CO)nc1Sc1ccnc(N)c1Cl (configuration not stated) + C=CC(=O)N1CCN(c2nc(OCC3CCCN3C)nc3c(F)c(-c4nc(N)cc(C)c4C(F)(F)F)c(Cl)cc23)C(C)C1
viability, T/C (second compound 0.00316 µM, first compound 0.0316 µM): 111%
viability, T/C (second compound 0.00316 µM, first compound 0.1 µM): 98.5%
viability, T/C (second compound 0.00316 µM, first compound 0.316 µM): 90.6%
viability, T/C (second compound 0.00316 µM, first compound 1 µM): 86.9%
viability, T/C (second compound 0.00316 µM, first compound 3.16 µM): 92.4%
viability, T/C (second compound 0.00316 µM, first compound 10 µM): 93%
viability, T/C (second compound 0.01 µM, first compound 0.0316 µM): 94.8%
viability, T/C (second compound 0.01 µM, first compound 0.1 µM): 79.3%
viability, T/C (second compound 0.01 µM, first compound 0.316 µM): 84.4%
viability, T/C (second compound 0.01 µM, first compound 1 µM): 93.3%
viability, T/C (second compound 0.01 µM, first compound 3.16 µM): 83.9%
viability, T/C (second compound 0.01 µM, first compound 10 µM): 68.5%
viability, T/C (second compound 0.0316 µM, first compound 0.0316 µM): 91.2%
viability, T/C (second compound 0.0316 µM, first compound 0.1 µM): 92.9%
viability, T/C (second compound 0.0316 µM, first compound 0.316 µM): 88.3%
viability, T/C (second compound 0.0316 µM, first compound 1 µM): 70%
viability, T/C (second compound 0.0316 µM, first compound 3.16 µM): 80.7%
viability, T/C (second compound 0.0316 µM, first compound 10 µM): 65.8%
viability, T/C (second compound 0.1 µM, first compound 0.0316 µM): 99.7%
viability, T/C (second compound 0.1 µM, first compound 0.1 µM): 87.6%
viability, T/C (second compound 0.1 µM, first compound 0.316 µM): 85.7%
viability, T/C (second compound 0.1 µM, first compound 1 µM): 86.9%
viability, T/C (second compound 0.1 µM, first compound 3.16 µM): 79.2%
viability, T/C (second compound 0.1 µM, first compound 10 µM): 60.2%
viability, T/C (second compound 0.316 µM, first compound 0.0316 µM): 84.9%
viability, T/C (second compound 0.316 µM, first compound 0.1 µM): 75.9%
viability, T/C (second compound 0.316 µM, first compound 0.316 µM): 80.5%
viability, T/C (second compound 0.316 µM, first compound 1 µM): 93.9%
viability, T/C (second compound 0.316 µM, first compound 3.16 µM): 79.4%
viability, T/C (second compound 0.316 µM, first compound 10 µM): 61.4%
viability, T/C (second compound 1 µM, first compound 0.0316 µM): 87.3%
viability, T/C (second compound 1 µM, first compound 0.1 µM): 90.8%
viability, T/C (second compound 1 µM, first compound 0.316 µM): 98.8%
viability, T/C (second compound 1 µM, first compound 1 µM): 92.6%
viability, T/C (second compound 1 µM, first compound 3.16 µM): 78.8%
viability, T/C (second compound 1 µM, first compound 10 µM): 62.2%
